The experiment deals with E. coli flagellar motor / cellular pmf. It counts as cell-based.

SMILES strings stand for the structures.

Method: Cell culture. We expressed the SAR86 γ-proteobacterial PR-variant (Geneart, Inc) in E. coli cells (RP437 DE3 ΔcheY Cm^R) using a T7 based expression system (pET200, Kan^R, Invitrogen). Cells were grown in T broth (1% Tryptone, 0.5% NaCl) supplemented with kanamycin (25 μg/ml). In mid-log phase, PR expression was induced with 1 mM IPTG and the medium was supplemented with 10 μM ethanolic all-trans-retinal. Cells were collected in late log phase by gentle centrifugation (4500×g, 5 min) and carefully resuspended in motility medium (1 mM PBS (Ambion), 0.1 mM EDTA, pH 7.4). PR^+ denotes cells expressing proteorhodopsin, and PR^− denotes cells (RP437 DE3 ΔcheY Cm^R) without the PR plasmid. […] Unless otherwise noted, all experiments were done in glucose free motility medium and at room temperature.
Instrumentation. […]
To increase the accuracy of the flagellar rotation measurements, a tethered cell geometry was employed (FIG. 2A) which permitted the extended observation of the same bacterium in different illumination conditions. PR^+ cells were allowed to stick to the coverslip via a flagellum, and the angular rotation rate of cells was monitored (FIG. 2A). […]

For `N#CC(C#N)=NNc1cccc(Cl)c1` [CCCP, carbonyl cyanide 3-chlorophenylhydrazone], the “Effect on bacterial motility” value (100 μM, low oxygen cultures, not restored with 50 seconds of green illumination) is on record as “eliminated all bacterial motility”. Regarding `[N-]=[N+]=[N-]` [azide, sodium azide], the IC50 (without green light, azide 0 to 110 mM, read-out: Azide concentration at which pmf dropped to 50% of its original value) turned out to be 55 mM.

The values are drawn from patent publication US20110256605A1, “CELLS WITH NON-NATURAL PHYSIOLOGIES DERIVED BY EXPRESSING LIGHT-POWERED PROTON PUMPS IN ONE OR MORE MEMBRANES” (The Regents of the University of California, a California …, priority 2010, published 2011).
